Assay results published in patent US4111751A, “Method of purifying alcohol dehydrogenase” (President and Fellows of Harvard College, priority 1977, dated 1978).
Values belong to the molecule of their own block, whether it stands above or below them.

Experiments:
[1] = target: all other forms of liver alcohol dehydrogenase; assay: inhibition of the other (pyrazole-sensitive) forms of liver alcohol dehydrogenase; format: biochemical, human
Source text: (§1) However, purification of these enzymes has been a complicated and difficult procedure. […] Elution is preferably carried out with pyrazole solution or with a lower alkanol having at least two carbon atoms, e.g., ethanol, 1-propanol, 1-butanol, 1-pentanol, and the like. Further purification and separation of isoenzymes from the bound portion can be achieved by alcohol gradient elution. The alcohol dehydrogenase of the bound portion can be separated from the NAD after elution, if desired, by conventional dialysis procedures. […] The anodic band of liver alcohol dehydrogenase, as identified by Li et al., Biochem. Biophys. Res. Comm.

[2] = system: human liver alcohol dehydrogenase; assay: inhibition of alcohol dehydrogenase activity of frozen human liver starting material; format: biochemical; settings: 33 micromolar, pH 10, frozen human liver
Experimental: Starting with 100 g frozen human liver having a specific activity at pH 10 of about 0.05 I.U./mg and low inhibition (~ 75%) by 33 micromolar 4-methyl-pyrazole at pH 10 as well as high intensity of stain for the anodic band on starch gel electrophoresis, the liver was homogenized in 2.5 volumes water at 4° C., centrifuged for 30 min. at 30,000 rpm in a 30 rotor to provide 240 ml. of clear supernatant assaying at 58 I.U. of pyrazole-insensitive activity with a specific activity of 0.002 I.U./mg.

[3] = target: T1, II-ADH (anodic band of liver alcohol dehydrogenase) (Homo sapiens, UniProt P08319); assay: inhibition of purified II-ADH (anodic band, pyrazole-insensitive liver alcohol dehydrogenase) activity; format: biochemical
T1 construct: Starting with 100 g frozen human liver; from tissue; host or cells: human liver (frozen), purified
Source text: as §1

[4] = target: T1, II-ADH (anodic band of liver alcohol dehydrogenase); format: biochemical; settings: pH 7.5; read-out: Km for ethanol
Source text: as §1

[5] = system: other forms of liver alcohol dehydrogenase; settings: read-out: Km for ethanol; cited from earlier work

T1 sequence (P08319 2-380 limits assumed): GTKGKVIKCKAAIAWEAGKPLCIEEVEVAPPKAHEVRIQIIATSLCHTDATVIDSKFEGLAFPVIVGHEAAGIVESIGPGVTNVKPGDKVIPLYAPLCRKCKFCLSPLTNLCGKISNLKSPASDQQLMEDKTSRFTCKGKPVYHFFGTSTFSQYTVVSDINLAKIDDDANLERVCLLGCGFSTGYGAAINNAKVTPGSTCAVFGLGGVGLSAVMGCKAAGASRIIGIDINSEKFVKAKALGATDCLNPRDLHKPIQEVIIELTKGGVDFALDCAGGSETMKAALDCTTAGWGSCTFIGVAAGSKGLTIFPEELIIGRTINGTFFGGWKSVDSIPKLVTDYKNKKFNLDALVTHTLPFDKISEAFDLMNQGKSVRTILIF

Ki ([1]; all other forms of liver alcohol dehydrogenase): < 1000 nM
Structure (SMILES): c1cn[nH]c1 [pyrazole]

inhibition of activity ([1]; 0.2 mM 4-methylpyrazole, 100 mM ethanol, remainder of purified enzyme forms): more than 90%
inhibition [2]: ~ 75%
inhibition at 200 µM ([3]; 0.2 mM 4-methylpyrazole, 100 mM ethanol, purified II-ADH): < 10%
inhibition ([3]; 33 micromolar, product after agarose-AMP): virtually uninhibited
Vi/Vc ([3]; eluant (effluent) of pyrazole affinity resin containing the anodic band): 95-100%
Structure (SMILES): Cc1cn[nH]c1 [4-methylpyrazole]

Structure (SMILES): CCO [ethanol]
Km [4]: 15 to 30 mM
Km [5]: ≤ 1 mM
